Measured values reported in PubChem BioAssay AID288 (DTP/NCI, 2004).
Several values for one entry are separate records, joined by “and”; a condition that tells them apart may be missing. Equal entries are not always repeated. Inconclusive results are not listed. Numbered stars: 1 amine (or outer) side, 2 acyl side, 3 side chain; on linkers, the order of the positions; unused ones are H or OH. Bridge positions count the residues as written; N and C are the ends. Square brackets hold non-standard residues; d marks the D form. Peptide text beside a SMILES is read from it. I, II: the chains in the order shown. * marks the point of attachment. ξ: configuration not given here. Quinaldoyl(3-OH,6-OMe) = COc1ccc2nc(C(=O)*)c(O)cc2c1; X1 = CCC(=O)OC1CC=NN([*:1])C1C(=O)[*:2]; X2 = CC(=O)OC1CC=NN([*:1])C1C(=O)[*:2]; ξNMeVal(3-OH) = CNC(C(=O)O)C(C)(C)O; Sar = CNCC(=O)O

Test system: BDF1 mice, M5076 sarcoma s.c., survival/tumor T/C
Assay: NCI In Vivo Anticancer Drug Screen. Data for tumor model Sarcoma M5076 (subcutaneous) in B6D2F1 (BDF1) mice
Method: The antitumor activity of compounds was measured in mice bearing transplantable tumors. Survival or tumor size were measured and the results are expressed as the measurement made in the treated group (T) divided by the measurement made in the vehicle treated control group (C). The tumor model used in this assay is Sarcoma M5076 (subcutaneous) in B6D2F1 (BDF1) mice

[1] = endpoint: median survival time, dose: 50.0 mg/kg/injection, schedule: Q01DX009 (ip), vehicle: saline with Tween-80, higher = longer survival
[2] = endpoint: median survival time, dose: 100.0 mg/kg/injection, schedule: Q01DX009 (ip), vehicle: saline with Tween-80, higher = longer survival
[3] = endpoint: median survival time, dose: 200.0 mg/kg/injection, schedule: Q01DX009 (ip), vehicle: saline with Tween-80, higher = longer survival
[4] = endpoint: median tumor weight (est.), dose: 100.0 mg/kg/injection, schedule: Q01DX009 (ip), vehicle: saline with Tween-80, higher = larger tumour

CCC/C=C/C=C/C(=O)OC1/C(=C/C(=O)OC)CC2CC(C(C)O)OC(=O)CC(O)CC3CC(OC(C)=O)C(C)(C)C(O)(CC4C/C(=C/C(=O)OC)CC(/C=C/C(C)(C)C1(O)O2)O4)O3 (configuration not stated)
T/C (endpoint: median survival time, dose: 5.0 micrograms/kg/injection, schedule: Q01DX009 (ip), vehicle: saline + Tween-80 + alcohol, higher = longer survival): 100 % of control | T/C (endpoint: median survival time, dose: 5.0 micrograms/kg/injection, schedule: Q01DX009 (ip), vehicle: saline + alcohol, higher = longer survival): 106 % of control | T/C (endpoint: median survival time, dose: 10.0 micrograms/kg/injection, schedule: Q01DX009 (ip), vehicle: saline + Tween-80 + alcohol, higher = longer survival): 97 % of control | T/C (endpoint: median survival time, dose: 10.0 micrograms/kg/injection, schedule: Q01DX009 (ip), vehicle: saline + alcohol, higher = longer survival): 96 % of control | T/C (endpoint: median survival time, dose: 20.0 micrograms/kg/injection, schedule: Q01DX009 (ip), vehicle: saline + Tween-80 + alcohol, higher = longer survival): 111 % of control | T/C (endpoint: median survival time, dose: 20.0 micrograms/kg/injection, schedule: Q01DX009 (ip), vehicle: saline + alcohol, higher = longer survival): 111 % of control | T/C (endpoint: median survival time, dose: 80.0 micrograms/kg/injection, schedule: Q01DX009 (ip), vehicle: saline + Tween-80 + alcohol, higher = longer survival): 103 % of control | T/C (endpoint: median survival time, dose: 80.0 micrograms/kg/injection, schedule: Q01DX009 (ip), vehicle: saline + alcohol, higher = longer survival): 103 % of control | T/C (endpoint: median tumor weight (est.), dose: 5.0 micrograms/kg/injection, schedule: Q01DX009 (ip), vehicle: saline + Tween-80 + alcohol, higher = larger tumour): 102 % of control | T/C (endpoint: median tumor weight (est.), dose: 5.0 micrograms/kg/injection, schedule: Q01DX009 (ip), vehicle: saline + alcohol, higher = larger tumour): 198 % of control | T/C (endpoint: median tumor weight (est.), dose: 10.0 micrograms/kg/injection, schedule: Q01DX009 (ip), vehicle: saline + Tween-80 + alcohol, higher = larger tumour): 89 % of control | T/C (endpoint: median tumor weight (est.), dose: 10.0 micrograms/kg/injection, schedule: Q01DX009 (ip), vehicle: saline + alcohol, higher = larger tumour): 107 % of control | T/C (endpoint: median tumor weight (est.), dose: 20.0 micrograms/kg/injection, schedule: Q01DX009 (ip), vehicle: saline + Tween-80 + alcohol, higher = larger tumour): 83 % of control | T/C (endpoint: median tumor weight (est.), dose: 20.0 micrograms/kg/injection, schedule: Q01DX009 (ip), vehicle: saline + alcohol, higher = larger tumour): 10 % of control | T/C (endpoint: median tumor weight (est.), dose: 40.0 micrograms/kg/injection, schedule: Q01DX009 (ip), vehicle: saline + Tween-80 + alcohol, higher = larger tumour): 11 % of control

CCOC(=O)CCC1(C(=O)OC)C(=O)CCCCCCCC1C(=O)OC (configuration not stated)
T/C [1]: 100 % of control | T/C [2]: 100 % of control | T/C [3]: 115 % of control

CC1CCC(NC(=O)N(CCF)N=O)CC1 (configuration not stated)
T/C (endpoint: median survival time, dose: 30.0 mg/kg/injection, schedule: Q01DX003 (ip), vehicle: saline with Tween-80, higher = longer survival): 157 % of control | T/C (endpoint: median survival time, dose: 50.0 mg/kg/injection, schedule: Q01DX001 (ip), vehicle: saline with Tween-80, higher = longer survival): 152 % of control

CCCCCCC(=O)O[C@H]1CC[C@H]2[C@@H]3CCC4=CC(=O)CC[C@]4(C)[C@H]3CC[C@]12C
T/C (endpoint: mean tumor weight, dose: 15.0 mg/kg/injection, schedule: Q02DX011 (ip), vehicle: Klucel (hydroxypropylcellulose) (HPC), higher = larger tumour): 43 % of control | T/C (endpoint: mean tumor weight, dose: 30.0 mg/kg/injection, schedule: Q02DX011 (ip), vehicle: Klucel (hydroxypropylcellulose) (HPC), higher = larger tumour): 68 % of control | T/C (endpoint: median tumor weight (est.), dose: 7.5 mg/kg/injection, schedule: Q02DX011 (ip), vehicle: Klucel (hydroxypropylcellulose) (HPC), higher = larger tumour): 124 % of control | T/C (endpoint: median tumor weight (est.), dose: 15.0 mg/kg/injection, schedule: Q02DX011 (ip), vehicle: Klucel (hydroxypropylcellulose) (HPC), higher = larger tumour): 21 % of control | T/C (endpoint: median tumor weight (est.), dose: 30.0 mg/kg/injection, schedule: Q02DX011 (ip), vehicle: Klucel (hydroxypropylcellulose) (HPC), higher = larger tumour): 52 % of control

O=C1/C(=C/c2ccc3c(c2)OCO3)SC(=S)N1c1ccc(Cl)c(Cl)c1
T/C [1]: 102 % of control | T/C [2]: 90 % of control | T/C (endpoint: median tumor weight (est.), dose: 50.0 mg/kg/injection, schedule: Q01DX009 (ip), vehicle: saline with Tween-80, higher = larger tumour): 154 % of control | T/C [4]: 116 % of control

Cc1cc(C)nc(NS(=O)(=O)c2ccc(NC(=O)C(Cl)(Cl)Cl)cc2)n1
T/C [1]: 88 % of control | T/C [2]: 88 % of control | T/C [3]: 94 % of control | T/C [4]: 171 % of control | T/C (endpoint: median tumor weight (est.), dose: 200.0 mg/kg/injection, schedule: Q01DX009 (ip), vehicle: saline with Tween-80, higher = larger tumour): 100 % of control

Cc1[nH]c(=O)[nH]c(=O)c1N(CCF)CCCl
T/C (endpoint: median survival time, dose: 4.0 mg/kg/injection, schedule: Q01DX009 (ip), vehicle: saline with Tween-80, higher = longer survival): 104 % of control | T/C (endpoint: median survival time, dose: 8.0 mg/kg/injection, schedule: Q01DX009 (ip), vehicle: saline with Tween-80, higher = longer survival): 120 % of control | T/C (endpoint: median tumor weight (est.), dose: 4.0 mg/kg/injection, schedule: Q01DX009 (ip), vehicle: saline with Tween-80, higher = larger tumour): 101 % of control | T/C (endpoint: median tumor weight (est.), dose: 8.0 mg/kg/injection, schedule: Q01DX009 (ip), vehicle: saline with Tween-80, higher = larger tumour): 47 % of control and 57 % of control | T/C (endpoint: median tumor weight (est.), dose: 16.0 mg/kg/injection, schedule: Q01DX009 (ip), vehicle: saline with Tween-80, higher = larger tumour): 8 % of control and 17 % of control

CCC(=O)OC1CC=NN2C(=O)C(NC(=O)c3nc4ccc(OC)cc4cc3O)COC(=O)C(C(C)(C)O)N(C)C(=O)CN(C)C(=O)CNC(=O)C3C(OC(C)=O)CC=NN3C(=O)C(NC(=O)c3nc4ccc(OC)cc4cc3O)COC(=O)C(C(C)(C)O)N(C)C(=O)CN(C)C(=O)CNC(=O)C12 (configuration not stated) (I: {Quinaldoyl(3-OH,6-OMe)}-S[X1]G[Sar][ξNMeVal(3-OH)] / II: {Quinaldoyl(3-OH,6-OMe)}-S[X2]G[Sar][ξNMeVal(3-OH)]; ester I:1-II:C, I:C-II:1; configuration not given here)
T/C (endpoint: median survival time, dose: 18.8 micrograms/kg/injection, schedule: Q01DX009 (ip), vehicle: Klucel (hydroxypropylcellulose) (HPC), higher = longer survival): 89 % of control | T/C (endpoint: median tumor weight (est.), dose: 18.8 micrograms/kg/injection, schedule: Q01DX009 (ip), vehicle: DMSO, higher = larger tumour): 86 % of control

COC1CC2C=C(C)/C=C/C=C/C(=O)NC(c3ccccc3)C/C=C/CCC(O)CC(=O)C2=C1O (configuration not stated)
T/C (endpoint: median survival time, dose: 1.0 mg/kg/injection, schedule: Q01DX009 (ip), vehicle: Klucel (hydroxypropylcellulose) (HPC), higher = longer survival): 100 % of control | T/C (endpoint: median survival time, dose: 2.0 mg/kg/injection, schedule: Q01DX009 (ip), vehicle: Klucel (hydroxypropylcellulose) (HPC), higher = longer survival): 100 % of control | T/C (endpoint: median survival time, dose: 4.0 mg/kg/injection, schedule: Q01DX009 (ip), vehicle: Klucel (hydroxypropylcellulose) (HPC), higher = longer survival): 100 % of control | T/C (endpoint: median tumor weight (est.), dose: 1.0 mg/kg/injection, schedule: Q01DX009 (ip), vehicle: Klucel (hydroxypropylcellulose) (HPC), higher = larger tumour): 77 % of control | T/C (endpoint: median tumor weight (est.), dose: 2.0 mg/kg/injection, schedule: Q01DX009 (ip), vehicle: Klucel (hydroxypropylcellulose) (HPC), higher = larger tumour): 109 % of control | T/C (endpoint: median tumor weight (est.), dose: 4.0 mg/kg/injection, schedule: Q01DX009 (ip), vehicle: Klucel (hydroxypropylcellulose) (HPC), higher = larger tumour): 82 % of control
